Data published in US12234245B2, “Sulfonimidamide compounds as inhibitors of interleukin-1 activity” (Genentech, Inc., priority 2018, dated 2025).
Where two headings read alike, the source gives them in different places.

Experiments:
Assay type in all cases: cell-based
PBMCs = experiment: CTG (CellTiter-Glo) viability assay in PBMCs; conditions: LPS and nigericin stimulated
Description: (§1) Human peripheral blood mononuclear cells (PBMCs), consisting of lymphocytes (T, B and NK cells), monocytes and dendritic cells, were freshly isolated from human peripheral blood from healthy donors. Cells were obtained through an IRB approved donor program by iXCells Biotechnologies where all the donors were tested for bacterial and viral infections. Cells were purified from peripheral blood using ficoll gradient centrifugation.
(§2) Fresh or cryopreserved PMBCs were seeded in V-bottom 96-well plate at 0.5-1×10^5 cells per well and incubated overnight at 37° C. with 5% CO2 in RPMI 1640 medium with GlutaMAX supplement, 4.5 g/L D-glucose, 10% Fetal Bovine Serum (FBS), […] Sodium Pyruvate, 1% Penicillin/Streptomycin, 10 mM HEPES and 0.05 mM of β-mercaptoethanol. Freshly isolated or cryopreserved KCs cells were seeded in flat-bottom 96-well plates at 0.6-1.5×10^5 cells/well and incubated overnight at 37° C. 5% CO2 in RPMI 1640 Medium with GlutaMAX supplement, FBS, 1% Penicillin/Streptomycin and 10 mM HEPES. The following day, the cells were primed with 100 ng/mL of lipopolysaccharides (LPS; Sigma Aldrich) in FBS-free RPMI 1640 for 3 h. After the priming step, the media was removed and PBMCs were pre-incubated with serial concentrations of test compounds (0.00017-10 uM) or vehicle (DMSO) for 30 min in FBS-free media prior to addition of the NLRP3 activator. Cells were then stimulated with 10 uM Nigericin (Sigma Aldrich; InvivoGen) for 1.5 h. Plates were centrifuged at 1,500 rpm for 3 minutes to pellet cells and supernatant was transferred into new plates for subsequent experiments.
Viability of compound treated cells was measured using CellTiter-Glo® assay (Promega, Madison, Wis.) that measures the ATP content of cells which is proportional to the number of live cells within a well. This is a counter-screen to establish that the reduction of IL-1β levels in LPS and nigericin stimulated and compound treated cells is not due to cytotoxicity, but rather through the inhibition of the inflammasome pathway. Compounds inhibiting NRLP3 inflammasome activation ultimately increase the viability of LPS and nigericin stimulated cells by blocking NLRP3 mediated pyroptosis that would otherwise lead to cell lysis.

NLRP3 inflammasome [1] = biological target: T1, NLRP3 inflammasome (Homo sapiens, UniProt Q96P20); experiment: NLRP3 inflammasome activation assay in PBMCs, IL-1β release (ELISA / HTRF); parameters: were freshly isolated from human peripheral blood from healthy donors; StemCells Technologies; host or cells: primary human PBMCs, LPS-primed, nigericin-stimulated; conditions: LPS primed
T1 sequence (Q96P20 whole entry): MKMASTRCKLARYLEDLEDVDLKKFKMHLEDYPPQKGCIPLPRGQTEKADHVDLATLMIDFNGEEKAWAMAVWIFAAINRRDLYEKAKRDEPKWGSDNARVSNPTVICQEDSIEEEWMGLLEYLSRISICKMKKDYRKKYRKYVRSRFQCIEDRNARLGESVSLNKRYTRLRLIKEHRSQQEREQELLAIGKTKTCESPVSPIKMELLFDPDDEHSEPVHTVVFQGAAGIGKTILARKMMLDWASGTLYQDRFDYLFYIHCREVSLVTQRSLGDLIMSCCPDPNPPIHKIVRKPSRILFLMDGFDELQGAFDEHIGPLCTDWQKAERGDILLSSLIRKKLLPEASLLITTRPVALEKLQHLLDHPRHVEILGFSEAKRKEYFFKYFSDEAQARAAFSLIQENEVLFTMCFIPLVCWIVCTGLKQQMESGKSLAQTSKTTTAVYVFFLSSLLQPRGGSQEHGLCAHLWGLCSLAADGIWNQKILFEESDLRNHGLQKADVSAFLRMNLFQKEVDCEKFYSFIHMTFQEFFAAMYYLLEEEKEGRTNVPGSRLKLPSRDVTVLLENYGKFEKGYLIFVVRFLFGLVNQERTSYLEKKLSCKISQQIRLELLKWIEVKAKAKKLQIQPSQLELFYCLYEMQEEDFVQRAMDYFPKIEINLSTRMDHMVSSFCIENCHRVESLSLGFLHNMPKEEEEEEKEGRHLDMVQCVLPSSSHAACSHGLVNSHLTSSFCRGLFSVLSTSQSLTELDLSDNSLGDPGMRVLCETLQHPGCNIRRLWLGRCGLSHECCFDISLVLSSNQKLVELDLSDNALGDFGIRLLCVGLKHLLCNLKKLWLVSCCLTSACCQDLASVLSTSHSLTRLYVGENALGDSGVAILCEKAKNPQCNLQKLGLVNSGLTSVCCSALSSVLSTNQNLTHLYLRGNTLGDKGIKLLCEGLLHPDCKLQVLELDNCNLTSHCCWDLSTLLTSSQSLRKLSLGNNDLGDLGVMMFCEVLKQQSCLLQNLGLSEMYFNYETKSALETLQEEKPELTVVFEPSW
Description: Some of the following assays were used to determine the inhibitory activity of the compounds on the NLRP3 inflammasome using a common inflammasome activation stimuli—nigericin.
as §1, §2
For ELISA assays cells were seeded into 96-well plates. Post study, supernatants were removed and the levels of mature IL-1β, IL18 and TNFα (Quantikine ELISA, R&D systems) were measured in cell conditioned media by ELISA according to manufacturer's instructions.
Human frozen PBMCs were purchased from StemCells Technologies. Cells were rapidly thawed in 37° C. water bath and resuspended in fresh assay media consisting of RPMI 1640 Medium containing 1% sodium pyruvate, 10 mM HEPES, 2.5 g/L glucose and 55 μM 2-Mercaptoethanol. Cell density was adjusted to 8.1×10^5 cells/mL. Cells were primed by adding lipopolysaccharide (Invivogen Ultrapure lipopolysaccharide from E. coli, tlrl-3pelps) at a final concentration of 100 ng/mL in cell suspension. 37 μL of cell suspension with LPS was seeded per well of a 384 well plate and incubated for 3 hours at 37° C. and 5% CO2. After priming, PBMCs were preincubated with serially diluted test compounds with starting concentration of 40 μM followed by 2-fold dilution for a 20-point curve or vehicle (DMSO) for 30 min in assay media at 37° C. and 5% CO2. Cells were then stimulated with 10 μM nigericin (Invivogen, tlrl-nig-5) for 90 min at 37° C. and 5% CO2 to activate NLRP3 dependent inflammasome pathway and IL-1β release in cell culture supernatant. Cells were centrifuged at 1200 RPM for 1 min and 40 μL of supernatant was transferred into fresh plates and stored at −80° C. until IL-1β analysis.
16 μL of supernatant was added to white 384 well HTRF plates, followed by addition of 4 μL of HTRF cocktail in each well. Plates were quickly centrifuged, sealed and incubated overnight at room temperature. Next day, HTRF signal was read on a Pherastar and ratio of 665/620 was calculated based on manufacturer's protocol to obtain concentration of IL-1β in cell culture supernatant.

NLRP3 inflammasome [2] = biological target: T1, NLRP3 inflammasome; experiment: THP-1 ASC-GFP speck assay; parameters: host or cells: THP-1 ASC-GFP cells, PMA-differentiated, LPS-primed, nigericin-stimulated; conditions: THP-1 ASC-GFP cells, PMA differentiated, LPS primed, 10 μM nigericin; read-out: THP1 ASC Speck IC50
Procedure, shortened: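 PMA-differentiated (500 ng/ml, overnight) THP-1 ASC-GFP cells primed with 1 μg/mL LPS for 3 h, preincubated 30 min with compound (top 40 μM, 2-fold, 20 points), then stimulated with 10 μM nigericin for 90 min at 37 °C. After fixation and Hoechst staining, imaging gave the percentage of cells bearing a GFP ASC speck.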

[3] = 10 uM nigericin, read-out: PBMC IL-1 β IC50
[4] = 10 μM nigericin, read-out: PBMC IL-1β IC50
[5] = human PBMCs, read-out: PBMC CTG IC50

Row | IC50 (NLRP3 inflammasome [1]; [3]) [nM] | IC50 (NLRP3 inflammasome [1]; [4]) [nM] | IC50 (NLRP3 inflammasome [2]) [nM] | Compound | IC50 (PBMCs; Homo sapiens, PBMC) [nM] | IC50 (PBMCs; [5]) [nM]
1 | 100 to 1000 |  |  | Cn1cc(S(N)(=O)=NC(=O)Nc2c3c(cc4c2CCC4)CCC3)cn1 (stereo not shown) | 100 to 1000 | 
2 | < 100 |  |  | CC1(C)COc2c(S(N)(=O)=NC(=O)Nc3c4c(cc5c3CCC5)CCC4)cnn2C1 (stereo not shown) | < 100 | 
3 |  | 24 |  | CO[C@@H]1COc2c(S(N)(=O)=NC(=O)Nc3c4c(cc5c3CCC5)CCC4)cnn2C1 (mixture of isomers) [Example 2, (6S)—N′-((1,2,3,5,6,7-hexahydro-s-indacen-4-yl)carbamoyl)-6-methoxy-6,7-dihydro-5H-pyrazolo[5,1-b][1,3]oxazine-3-sulfonimidamide] | 100 | 
4 |  | 1020 |  | Cn1cc(S(N)(=O)=NC(=O)Nc2c3c(cc4c2CCC4)CCC3)cn1 (racemic) [Example 5, N′-((1,2,3,5,6,7-hexahydro-s-indacen-4-yl)carbamoyl)-1-methyl-1H-pyrazole-4-sulfonimidamide] | 648 | 
5 |  | 14 |  | CC1(C)COc2c(S(N)(=O)=NC(=O)Nc3c4c(cc5c3CCC5)CCC4)cnn2C1 (racemic) [Example 6, N′-((1,2,3,5,6,7-hexahydro-s-indacen-4-yl)carbamoyl)-6,6-dimethyl-6,7-dihydro-5H-pyrazolo[5,1-b][1,3]oxazine-3-sulfonimidamide] | 3 | 
6 |  | 350 |  | NS(=O)(=NC(=O)Nc1c2c(cc3c1CCC3)CCC2)c1cnn(CC2CC2)c1 (racemic) [Example 10, 1-(cyclopropylmethyl)-N′-((1,2,3,5,6,7-hexahydro-s-indacen-4-yl)carbamoyl)-1H-pyrazole-4-sulfonimidamide] | 360 | 
7 |  | 300 |  | CNC1COc2c(S(N)(=O)=NC(=O)Nc3c4c(cc5c3CCC5)CCC4)cnn2C1 (single isomer, unassigned) [Example 25] |  | 8
8 |  | 180 |  | NS(=O)(=NC(=O)Nc1c2c(cc3c1CCC3)CCC2)c1cnn2c1OCC(NCCF)C2 (single isomer, unassigned) [Example 35] | 250 | 
9 |  | 50 | 66 | NS(=O)(=NC(=O)Nc1c2c(cc3c1CCC3)CCC2)c1cnn2c1OCC(NCCF)C2 (single isomer, unassigned) [Example 36] |  | 170

Further lines, the compound ahead of its results:

Row | Compound | IC50 (NLRP3 inflammasome [1]; [3]) [nM] | IC50 (NLRP3 inflammasome [1]; [4]) [nM] | IC50 (NLRP3 inflammasome [2]) [nM] | IC50 (PBMCs; Homo sapiens, PBMC) [nM] | IC50 (PBMCs; [5]) [nM]
10 | NS(=O)(=NC(=O)Nc1c2c(c(F)c3c1CCC3)CCC2)c1cnn2c1OCCC2 (stereo not shown) | < 100 |  |  | < 100 | 
11 | CN=S(=O)(NC(=O)Nc1c2c(cc3c1CCC3)CCC2)c1cnn2c1OCCC2 (stereo not shown) | > 10000 |  |  | > 10000 | 
12 | N=S(=O)(NC(=O)Nc1c2c(cc3c1CCC3)CCC2)c1cnn(CC2CC2)c1 (stereo not shown) | 100 to 1000 |  |  | 100 to 1000 | 
13 | CC(C)c1cc(F)cc(C(C)C)c1NC(=O)N=S(N)(=O)c1cnn2c1OCCC2 (racemic) [Example 3, N′-((4-fluoro-2,6-diisopropylphenyl)carbamoyl)-6,7-dihydro-5H-pyrazolo[5,1-b][1,3]oxazine-3-sulfonimidamide] |  | 410 |  | 176 | 
14 | NS(=O)(=NC(=O)Nc1c2c(c(F)c3c1CCC3)CCC2)c1cnn2c1OCCC2 (racemic) [Example 4, N′-((8-fluoro-1,2,3,5,6,7-hexahydro-s-indacen-4-yl)carbamoyl)-6,7-dihydro-5H-pyrazolo[5,1-b][1,3]oxazine-3-sulfonimidamide] |  | 50 |  | 35 | 
15 | CNS(=O)(=NC(=O)Nc1c2c(cc3c1CCC3)CCC2)c1cnn2c1OCCC2 (racemic) [Example 9, N′-((1,2,3,5,6,7-hexahydro-s-indacen-4-yl)carbamoyl)-N-methyl-6,7-dihydro-5H-pyrazolo[5,1-b][1,3]oxazine-3-sulfonimidamide] |  | > 10000 |  | > 10000 | 
16 | NS(=O)(=NC(=O)Nc1c2c(c(C(=O)O)c3c1CCC3)CCC2)c1cnn2c1OCCC2 (racemic) [Example 37, 8-(3-(6,7-dihydro-5H-pyrazolo[5,1-b][1,3]oxazine-3-sulfonimidoyl)ureido)-1,2,3,5,6,7-hexahydro-s-indacene-4-carboxylic acid] |  | > 10000 | > 20000 | > 10000 | 
17 | CC(C)c1cc(F)cc(C(C)C)c1NC(=O)N=S(N)(=O)c1cnn2c1OCCC2 (single isomer, unassigned) [Example 7] |  | 290 |  | 3 | 
18 | CC(C)c1cc(F)cc(C(C)C)c1NC(=O)N=S(N)(=O)c1cnn2c1OCCC2 (single isomer, unassigned) [Example 8] |  | 1000 | 9400 |  | 2
19 | NS(=O)(=NC(=O)Nc1c2c(c(F)c3c1CCC3)CCC2)c1cnn2c1OCCC2 (single isomer, unassigned) [Example 22] |  | 95 | 150 |  | 66
20 | COC1CN(C2COc3c(S(N)(=O)=NC(=O)Nc4c5c(cc6c4CCC6)CCC5)cnn3C2)C1 (single isomer, unassigned) [Example 38] |  | 2030 | 1500 |  | 1160
21 | COC1CN(C2COc3c(S(N)(=O)=NC(=O)Nc4c5c(cc6c4CCC6)CCC5)cnn3C2)C1 (single isomer, unassigned) [Example 39] |  | 19 |  |  | 150
22 | CNC1COc2c(S(N)(=O)=NC(=O)Nc3c4c(c(F)c5c3CCC5)CCC4)cnn2C1 (single isomer, unassigned) [Example 40] |  | 4.9 | 8.8 |  | 3
23 | CNC1COc2c(S(N)(=O)=NC(=O)Nc3c4c(c(F)c5c3CCC5)CCC4)cnn2C1 (single isomer, unassigned) [Example 41] |  | 6800 | 430 |  | 1310
24 | CO[C@@H]1COc2c(S(=N)(=O)NC(=O)Nc3c4c(cc5c3CCC5)CCC4)cnn2C1 (stereo partly shown) [drawing 650] | < 100 |  |  |  | < 100
25 | CC(C)c1cc(F)cc(C(C)C)c1NC(=O)NS(=N)(=O)c1cnn2c1OCCC2 (stereo not shown) [drawing 651] | 100 to 1000 |  |  |  | 100 to 1000
26 | CC(C)c1cc(F)cc(C(C)C)c1NC(=O)NS(=N)(=O)c1cnn2c1OCCC2 (stereo not shown) [drawing 655] | 100 to 1000 |  |  | < 100 | 
27 | CC(C)c1cc(F)cc(C(C)C)c1NC(=O)NS(=N)(=O)c1cnn2c1OCCC2 (stereo not shown) [drawing 656] | 100 to 1000 |  |  |  | < 100
